Biological target: AT2 Receptor (AT2R) (Homo sapiens (Human), UniProt P50052)
Experiment: Measurement of inhibitory activity on AT2 receptor (Tag-lite HTRF, Tb-labeled AT2R cells, angiotensin receptor red agonist)
Type: binding
Details: 1 h room temperature
Procedure: Measurement of Inhibitory Activity on AT1 Receptor ([…])/AT2 Receptor (AT2R)
Through the following steps, the inhibitory activity of the compound on AT1R/AT2R (IC50 value) was determined:
1) An appropriate amount of 1×TLB (Tag-lite Buffer) was prepared and well mixed for use.
2) The compound was diluted by 10 times with ddH2O or DMSO. The compound was then dilute to 4 times of the working concentration with 1×TLB and mixed well for use.
3) 8600 nM Tag-lite angiotensin receptor red agonist was diluted to 12 nM (4×Kd) with 1×TLB.
4) 5 ml 1×TLB was taken into a 15 ml centrifuge tube.
5) After thawing 1 tube of Tb-labeled AT1R/AT2R cells in a 37° C. water bath, the cells were quickly transferred to the 1×TLB in step 4), mixed gently, and centrifuged at 1200 g for 5 minutes at room temperature.
6) The supernatant was aspirated gently, and the cells were resuspended and mixed in 2.7 ml 1×TLB, and then placed at room temperature until use.
7) 10 μl cells were added to all test wells, and 5 μl 4× working solution of the compound from step 2) was added to the corresponding test wells. 5 μl 4× Tag-lite angiotensin receptor red agonist well diluted in step 3) was added to all test wells.
8) After leaving the reaction plate at room temperature for 1 h, data were measured and analyzed using Envision HTRF Reader, and the half inhibitory concentration (IC50) of the compound on AT1R/AT2R was calculated with the GraphPad Prism four-parameter equation.

Chain of AT2 Receptor (AT2R) (P50052 whole entry): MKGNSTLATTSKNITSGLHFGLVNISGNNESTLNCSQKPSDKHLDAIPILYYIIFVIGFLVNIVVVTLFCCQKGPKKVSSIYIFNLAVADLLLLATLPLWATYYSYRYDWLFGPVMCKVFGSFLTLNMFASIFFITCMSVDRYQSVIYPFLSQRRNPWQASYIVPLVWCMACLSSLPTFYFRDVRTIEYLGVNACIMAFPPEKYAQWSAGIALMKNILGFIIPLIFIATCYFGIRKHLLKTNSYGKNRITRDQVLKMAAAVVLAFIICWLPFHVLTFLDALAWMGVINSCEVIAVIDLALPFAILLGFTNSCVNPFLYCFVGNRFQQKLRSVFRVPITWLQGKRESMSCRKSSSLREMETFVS

SMILES	IC50 [nM]
O=C(O)[C@@H]1[C@H]2CC[C@@H](CN1C(=O)N(c1ccccc1)c1ccccc1)N2C(=O)N1CCCC1c1ccc(Cl)cc1 (stereo in doubt) [Compound C144, (1R,2S,5S)-8-((R)-2-(4-chlorphenyl)pyrrolidine-1-carbonyl)-3-(diphenylcarbamoyl)-3,8-diazabicyclo [3.2.1]octane-2-carboxylic acid]	21.6
O=C(NC1CC2CCC1C(C(=O)O)N2C(=O)C(c1ccccc1)c1ccccc1)c1ccccc1 (stereo in doubt) [Compound C286, (1S,3S,4R)-5-benzamido-2-(2,2-diphenylacetyl)-2-azabicyclo[2.2.2]octane-3-carboxylic acid]	760
O=C(O)[C@H]1[C@@H]2CC[C@H](CN1C(=O)C(c1ccccc1)c1ccccc1)N2C(=O)C(c1ccccc1)c1ccccc1 [Compound C2, (1S,2R,5R)-3,8-bis (2,2-diphenylacetyl)-3,8-diazabicyclo [3.2.1]octane-2-carboxylic acid]	9.11
O=C(O)[C@@H]1[C@H]2CC[C@@H](CN1C(=O)C(c1ccccc1)c1ccccc1)N2C(=O)C(c1ccccc1)c1ccccc1 [Compound C3, (1R,2S,5S)-3,8-bis (2,2-diphenylacetyl)-3,8-diazabicyclo [3.2.1]octane-2-carboxylic acid]	13.9
O=C(O)[C@H]1[C@@H]2CC[C@H](CN1C(=O)C(c1ccccc1)c1ccccc1)N2C(=O)C(c1ccccc1)c1ccccc1 [Compound C4, (1S,2R,5R)-3,8-bis (2,2-diphenylacetyl)-3,8-diazabicyclo [3.2.1]octane-2-carboxylic acid]	9.82
O=C(O)[C@@H]1[C@H]2CC[C@@H](CN1C(=O)N1c3ccccc3C=Cc3ccccc31)N2C(=O)N(c1ccccc1)c1ccccc1 [Compound C7, (1R,2S,5S)-3-(5H-dibenzo[b,f]azepine-5-carbonyl)-8-(diphenylcarbamoyl)-3,8-diazabicyclo[3. 2.1]octane-2-carboxylic acid]	82.7
O=C(O)[C@@H]1[C@H]2CC[C@@H](CN1C(=O)C(c1ccccc1)c1ccccc1)N2C(=O)N1c2ccccc2C=Cc2ccccc21 [Compound C9, (1R,2S,5S)-8-(5H-dibenzo[b,f]azepine-5-carbonyl)-3-(2,2-diphenylacetyl)-3,8-diazabicyclo [3.2.1]octane-2-carboxylic acid]	107
O=C(O)[C@H]1[C@@H]2CC[C@H](CN1C(=O)N(c1ccccc1)c1ccccc1)N2C(=O)N(c1ccccc1)c1ccccc1 [Compound C13, (1S,2R,5R)-3,8-bis (diphenylcarbamoyl)-3,8-diazabicyclo [3.2.1]octane-2-carboxylic acid]	22.2
O=C(O)[C@@H]1[C@H]2CC[C@@H](CN1C(=O)N1c3ccccc3Sc3ccccc31)N2C(=O)C(c1ccccc1)c1ccccc1 [Compound C28, (1R,2S,5S)-8-(2,2-diphenylacetyl)-3-(10H-phenothiazine-10-carbonyl)-3,8-diazabicyclo[3.2.1] octane-2-carboxylic acid]	473
O=C(O)[C@@H]1[C@H]2CC[C@@H](CN1C(=O)C(c1ccccc1)c1ccccc1)N2C(=O)OCc1c(F)cccc1F [Compound C36, (1R,2S,5S)-8-(((2,6-diflurorbenzyl)oxy)carbonyl)-3-(2,2-diphenylacetyl)-3,8-diazabicyclo [3.2.1]octane-2-carboxylic acid]	20.7
O=C(O)[C@@H]1[C@H]2CC[C@@H](CN1C(=O)N(c1ccccc1)c1ccccc1)N2C(=O)N(c1ccccc1)c1ccccc1 [Compound C41, (1R,2S,5S)-3,8-bis (diphenylcarbamoyl)-3,8-diazabicyclo [3.2.1]octane-2-carboxylic acid]	9.77
CN(Cc1ccccc1)C(=O)N1C[C@@H]2CC[C@H]([C@H]1C(=O)O)N2C(=O)C(c1ccccc1)c1ccccc1 [Compound C62, (1R,2S,5S)-3-(benzyl(methyl)carbamoyl)-8-(2,2-diphenylacetyl)-3,8-diazabicyclo[3.2.1]octane-2-carboxylic acid]	104
O=C(O)[C@@H]1[C@H]2CC[C@@H](CN1C(=O)Oc1ccccc1)N2C(=O)N(c1ccccc1)c1ccccc1 [Compound C69, (1R,2S,5S)-8-(diphenylcarbamoyl)-3-(phenoxycarbonyl)-3,8-diazabicyclo [3.2.1]octane-2-carboxylic acid]	170
O=C(O)[C@H]1[C@@H]2CC[C@H](CN1C(=O)OCc1ccccc1)N2C(=O)C(c1ccccc1)c1ccccc1 [Compound C75, (1S,2R,5R)-3-((benzyloxy)carbonyl)-8-(2,2-diphenylacetyl)-3,8-diazabicyclo[3. 2.1]octane-2-carboxylic acid]	54
O=C(O)[C@H]1[C@@H]2CC[C@H](CN1C(=O)C(c1ccccc1)c1ccccc1)N2C(=O)OCc1ccccc1 [Compound C76, (1S,2R,5R)-8-((benzyloxy)carbonyl)-3-(2,2-diphenylacetyl)-3,8-diazabicyclo [3.2.1]octane-2-carboxylic acid]	69.7
O=C(O)[C@@H]1[C@H]2CC[C@@H](CN1C(=O)N(c1ccccc1)c1ccccc1)N2C(=O)C1(c2ccccc2)CCCC1 [Compound C113, (1R,2S,5S)-3-(diphenylcarbamoyl)-8-(1-phenylcyclopentane-1-carbonyl)-3,8-diazabicyclo [3.2.1]octane-2-carboxylic acid]	12.1
CN(Cc1ccccc1F)C(=O)N1[C@H]2CC[C@@H]1[C@@H](C(=O)O)N(C(=O)N(c1ccccc1)c1ccccc1)C2 [Compound C114, (1R,2S,5S)-3-(diphenylcarbamoyl)-8-((2-fluorobenzyl) (methyl)carbamoyl)-3,8-diazabicyclo [3.2.1]octane-2-carboxylic acid]	26.4
O=C(O)[C@@H]1[C@H]2CC[C@@H](CN1C(=O)N(c1ccccc1)c1ccccc1)N2C(=O)Oc1ccccc1 [Compound C115, (1R,2S,5S)-3-(diphenylcarbamoyl)-8-(phenoxycarbonyl)-3,8-diazabicyclo [3.2.1]octane-2-carboxylic acid]	431
CC(NC(=O)N1[C@H]2CC[C@@H]1[C@@H](C(=O)O)N(C(=O)N(c1ccccc1)c1ccccc1)C2)c1ccccc1 (stereo partly drawn) [Compound C117, (1R,2S,5S)-3-(diphenylcarbamoyl)-8-((1-phenylethyl)carbamoyl)-3,8-diazabicyclo [3.2.1]octane-2-carboxylic acid]	61.3
CN(Cc1ccccc1)C(=O)N1[C@H]2CC[C@@H]1[C@@H](C(=O)O)N(C(=O)C1(c3ccccc3)CCCCC1)C2 [Compound C120, (1R,2S,5S)-8-(benzyl(methyl)carbamoyl)-3-(1-phenylcyclohexane-1-carbonyl)-3,8-diazabicyclo [3.2.1]octane-2-carboxylic acid]	350
CN(Cc1cccnc1)C(=O)N1[C@H]2CC[C@@H]1[C@@H](C(=O)O)N(C(=O)N(c1ccccc1)c1ccccc1)C2 [Compound C124, (1R,2S,5S)-3-(diphenylcarbamoyl)-8-(methyl(pyridine-3-ylmethyl)carbamoyl)-3,8-diazabicyclo [3.2.1]octane-2-carboxylic acid]	37.8
CN(Cc1ccncc1)C(=O)N1[C@H]2CC[C@@H]1[C@@H](C(=O)O)N(C(=O)N(c1ccccc1)c1ccccc1)C2 [Compound C125, (1R,2S,5S)-3-(diphenylcarbamoyl)-8-(methyl(pyridine-4-ylmethyl)carbamoyl)-3,8-diazabicyclo [3.2.1]octane-2-carboxylic acid]	19
CN(Cc1ccccn1)C(=O)N1[C@H]2CC[C@@H]1[C@@H](C(=O)O)N(C(=O)N(c1ccccc1)c1ccccc1)C2 [Compound C126, (1R,2S,5S)-3-(diphenylcarbamoyl)-8-(methyl(pyridine-2-ylmethyl)carbamoyl)-3,8-diazabicyclo [3.2.1]octane-2-carboxylic acid]	78
O=C(O)[C@@H]1[C@H]2CC[C@@H](CN1C(=O)N(c1ccccc1)c1ccccc1)N2C(=O)N(Cc1ccccc1)CC(F)(F)F [Compound C128, (1R,2S,5S)-8-(benzyl(2,2,2-trifluoroethyl)carbamoyl)-3-(diphenylcarbamoyl)-3,8-diazabicyclo [3.2.1]octane-2-carboxylic acid]	21.5
CN(Cc1ccccc1)C(=O)N1[C@H]2CC[C@@H]1[C@@H](C(=O)O)N(C(=O)N(c1ccc(F)cc1)c1ccc(F)cc1)C2 [Compound C129, (1R,2S,5S)-8-(benzyl(methyl)carbamoyl)-3-(bis(4-fluorophenyl)carbamoyl)-3,8-diazabicyclo [3.2.1]octane-2-carboxylic acid]	148
O=C(O)[C@@H]1[C@H]2CC[C@@H](CN1C(=O)N(c1ccccc1)c1ccccc1)N2C(=O)N1CCc2ccccc2C1 [Compound C131, (1R,2S,5S)-3-(diphenylcarbamoyl)-8-(1,2,3,4-tetrahydroisoquinoline-2-carbonyl)-3,8-diazabicyclo [3.2.1]octane-2-carboxylic acid]	495
O=C(O)[C@@H]1[C@H]2CC[C@@H](CN1C(=O)N(c1ccccc1)c1ccccc1)N2C(=O)N1CCN(c2ccccc2)CC1 [Compound C132, (1R,2S,5S)-3-(diphenylcarbamoyl)-8-(4-phenylpiperazine-1-carbonyl)-3,8-diazabicyclo[3.2.1] octane-2-carboxylic acid]	482

From patent US11453690B2, “Receptor inhibitor, pharmaceutical composition comprising same, and use thereof” (BEIJING TIDE PHARMACEUTICAL CO., LTD., priority 2018, dated 2022)
